Among the data in ChEMBL document CHEMBL5441381, “ASAP - In vitro antiviral effect” (2024) are EC50 and EC90 values, retold here.

Where “and” joins values, the source holds several entries; their conditions need not be identical. Identical values can stand only once.

Assay [1] concerns SARS-CoV-2. The assay is described as follows: (§1) Functional immunofluorescence assay to measure dose dependent changes in antiviral-drug inhibitory efficacy against hCoV-19/USA-WA1/2020 in iPSC-Pneumocyte cells which are seeded prior to treatment, then infected with hCoV-19/USA-WA1/2020. Cells are fixed with 10 % formaldehyde, washed with PBS, permeabilized with permeabilization buffer, then washed with wash buffer. The cells are incubated with nucleoprotein primary antibody IC7C7. Following primary staining, cells are washed with wash buffer and incubated in a solution of with Alexa fluor 488 and DAPI. Infected and uninfected cells are visualized and analyzed by Gen5 software. The assay has been performed by Icahn School of Medicine at Mount Sinai. In kind it is organism-based, Homo sapiens.

The test system of assay [2] is SARS-CoV-2. The description is as §1, with “hCoV-19/USA-WA1/2020 in HeLa-ACE2 cells which” for “hCoV-19/USA-WA1/2020 in iPSC-Pneumocyte cells which”, “prior to drug treatment, then” for “prior to treatment, then”. Type of assay: organism-based, Homo sapiens.
Setting [3] is: Severe acute respiratory syndrome coronavirus 2, Pneumocyte.
Where [4] appears, read: Severe acute respiratory syndrome coronavirus 2, HeLa-ACE2.

Regarding `CC(C)[C@@H](Nc1ncnc2[nH]c(-c3cnn(C)c3)cc12)c1ccc2c(c1)S(=O)(=O)CCC2`, the EC50 – broadly, the concentration that produces a half-maximal response – is 7.59 µM in assay [1] (setting [3]) and above 20 µM in assay [2] (setting [4]). Also, the EC90 (as a rule, the concentration at which the effect reaches the 90% level) is above 50 µM in assay [1] (Severe acute respiratory syndrome coronavirus 2, Pneumocyte, Baseline response 0 %, Hill slope -0.905, Maximum measured 103.795 %, Maximum response 100 %, Minimum measured 0.206 %, R squared 0.828) and above 20 µM in assay [2] (Severe acute respiratory syndrome coronavirus 2, HeLa-ACE2, Baseline response 0 %, Hill slope -10.363, Maximum measured 119.22 %, Maximum response 100 %, Minimum measured 72.714 %, R squared 0.37).
In the case of `CC(C)[C@@H](Nc1ncnc2[nH]ccc12)c1ccc2c(c1)NC(=O)CO2`, the EC50 in assay [1] (setting [3]) and in assay [2] (setting [4]) was above 50 µM in each case. For the same compound, the EC90 is above 50 µM in assay [1] (Severe acute respiratory syndrome coronavirus 2, Pneumocyte, Maximum measured 145.289 %, Minimum measured 92.172 %) and above 50 µM in assay [2] (Severe acute respiratory syndrome coronavirus 2, HeLa-ACE2, Baseline response 0 %, Hill slope -2.239, Maximum measured 123.573 %, Maximum response 100 %, Minimum measured 69.199 %, R squared 0.469).
For the compound `CC(C)(C)[C@@H](Nc1ncnc2[nH]c(-c3cnn(CC(N)=O)c3)cc12)c1ccc2c(n1)OCCO2`, the EC50 in assay [1] (setting [3]) is 11.4 µM; in assay [2] (setting [4]), above 20 µM. Also, the EC90 in assay [1] (Severe acute respiratory syndrome coronavirus 2, Pneumocyte, Baseline response 0 %, Hill slope -0.772, Maximum measured 91.919 %, Maximum response 100 %, Minimum measured 11.328 %, R squared 0.786) was above 50 µM; in assay [2] (Severe acute respiratory syndrome coronavirus 2, HeLa-ACE2, Maximum measured 115.43 %, Minimum measured 93.464 %) it was above 20 µM.
As for `CC(C)[C@@H](Nc1ncnc2[nH]c(-c3cnn(CC(N)=O)c3)cc12)c1ccc2c(n1)OCCO2`, the EC50 in assay [1] (setting [3]) was above 50 µM; in assay [2] (setting [4]) it was above 20 µM. In addition, the EC90 was above 50 µM in assay [1] (Severe acute respiratory syndrome coronavirus 2, Pneumocyte, Baseline response 0 %, Hill slope -0.097, Maximum measured 94.962 %, Maximum response 100 %, Minimum measured 56.467 %, R squared 0.078) and above 20 µM in assay [2] (Severe acute respiratory syndrome coronavirus 2, HeLa-ACE2, Maximum measured 122.738 %, Minimum measured 101.22 %).
For the compound `CNC(=O)c1cc2c(N[C@@H](c3ccc4c(c3)OCCO4)C(C)C)ncnc2[nH]1`, the EC50 in assay [1] (setting [3]) and in assay [2] (setting [4]) was above 50 µM in each case. Also, the EC90 in assay [1] (Severe acute respiratory syndrome coronavirus 2, Pneumocyte, Maximum measured 153.61 %, Minimum measured 91.144 %) is above 50 µM; in assay [2] (Severe acute respiratory syndrome coronavirus 2, HeLa-ACE2, Baseline response 0 %, Hill slope -1.825, Maximum measured 114.293 %, Maximum response 100 %, Minimum measured 64.264 %, R squared 0.688) it was above 50 µM.
Consider `Cn1ncc(-c2cc3c(N[C@@H](c4ccc5c(c4)OCCO5)C(C)(C)C)ncnc3[nH]2)c1C#N`, for which the EC50 in assay [1] (setting [3]) worked out at 7.67 µM; in assay [2] (setting [4]) it was 1.05 µM; in assay [2] (hela-ace2) it was 1.12 µM. Also, the EC90 in assay [1] (Severe acute respiratory syndrome coronavirus 2, Pneumocyte, Baseline response 0 %, EC90 CI (lower) 1.944 uM, EC90 CI (upper) 9.946 uM, Hill slope -3.954, Maximum measured 131.986 %, Maximum response 100 %, Minimum measured 2.165 %, R squared 0.772) came to 13.4 µM; in assay [2] (Baseline response 0 %, EC90 CI (lower) 0.293 uM, EC90 CI (upper) 0.492 uM, Hill slope -2.031, Maximum measured 93.387 %, Maximum response 100 %, Minimum measured 1.413 %, R squared 0.981), 3.3 µM; in assay [2] (Severe acute respiratory syndrome coronavirus 2, HeLa-ACE2, Baseline response 0 %, EC90 CI (lower) 0.423 uM, EC90 CI (upper) 0.632 uM, Hill slope -3.108, Maximum measured 91.316 %, Maximum response 100 %, Minimum measured 1.9 %, R squared 0.978), 2.12 µM.
`CC(C)[C@@H](Nc1ncnc2[nH]c(-c3cnn(C)c3C#N)cc12)c1ccc2c(c1)OCCO2`: the EC90 in assay [1] (Severe acute respiratory syndrome coronavirus 2, Pneumocyte, Baseline response 0 %, Hill slope -15.978, Maximum measured 108.15 %, Maximum response 100 %, Minimum measured 1.229 %, R squared 0.666) came to 16.2 µM; in assay [1] (Severe acute respiratory syndrome coronavirus 2, Pneumocyte, Baseline response 0 %, EC90 CI (lower) 0 uM, EC90 CI (upper) 0 uM, Hill slope -11.115, Maximum measured 116.315 %, Maximum response 100 %, Minimum measured 8.563 %, R squared 0.796), 6.57 µM; in assay [2] (Baseline response 0 %, EC90 CI (lower) 0.491 uM, EC90 CI (upper) 1.004 uM, Hill slope -2.446, Maximum measured 109.522 %, Maximum response 100 %, Minimum measured 0 %, R squared 0.979) it was 4.23 µM; in assay [2] (Severe acute respiratory syndrome coronavirus 2, HeLa-ACE2, Baseline response 0 %, EC90 CI (lower) 0.194 uM, EC90 CI (upper) 2.46 uM, Hill slope -2.403, Maximum measured 109.522 %, Maximum response 100 %, Minimum measured 3.811 %, R squared 0.7) it was 4.31 µM. Besides, the EC50 in assay [1] (pneumocyte) is 14.1 µM and 5.39 µM; in assay [2] (setting [4]) it was 1.73 µM; in assay [2] (hela-ace2) it was 1.72 µM.
